This note sets out measurements from patent US6849593B1, “Bifidogenic peptides” (Pharis Biotec GmbH, priority 1997, dated 2005).

This test concerns Bifidobacterium bifidum ATCC 29521. In words: bifidogenic activity: growth test with bifidobacteria in combination with a growth test with E. coli. To be noted: growth of Bifidobacterium bifidum (50% Elliker broth, anaerobic, 37° C., 16 hours) relative to growth of E. coli K12 (3 g/l tryptic soy broth, 16 hours); desalted HPLC fractions from pepsin-treated human milk. In kind it is cell-based. As for the experimental part: This object is achieved by peptides having the features of claim 1. […]
For each assay, cultures of E. coli K12 were freshly inoculated in tryptic soy broth (Sigma, Deisenhofen, Germany, order No. T8907) (Difco Manual, 10th ed., p. 1027). […] The photometric absorption of the inoculum was 0.05, measured at 500 nm. The growth of the bacteria under the influence of the peptides was also photometrically determined in an ELISA reader after 16 hours and manually determined by microscopy.
For each assay, cultures of Bifidobacterium bifidum ATCC 29521 were freshly inoculated in Elliker broth (Difco, Detroit, USA) (tryptone 20 g, yeast extract 5 g, gelatin 2.5 g, dextrose 5 g, lactose 5 g, saccharose 5 g, sodium chloride 4 g, sodium acetate 1.5 g, ascorbic acid 0.5 g). […] The photometric absorption of the inoculum was 0.05, measured at 550 nm. The growth of the bacteria under the influence of the peptides was also photometrically determined in an ELISA reader after 16 hours and manually determined by microscopy. […]

In the case of “YQRRPAIAINNPYVPRTYYANPAVVRPHAQIPQRQYLPNSHPPTVVRRPLPSF (YQRRPAIAINNPYVPRTYYANPAVVRPHAQIPQRQYLPNSHPPTVVRRPNLHPSF) [casein K-63-117, pure bifidogenic component of fraction 9, peptide isolated from pepsin-treated human milk]”, the bifidogenic activity entry is given as “bifidogenic”.
Then “GRRRRSVQWCAVSQPEATKCFQWQRNMRKVRGPPVSCIKRDSPICCIQA (GRRRSVQWCAVSQPEATKCFQWQRNMRKVRGPPVSCIKRDSPIQCIQA) [neutrophile lactoferrin-20-67, bifidogenic component of fraction 10, peptide isolated from pepsin-treated human milk]”, with “bifidogenic”.
